{
  "source": "ChEMBL document CHEMBL1150570",
  "about": "“Five novel neuroprotective triterpene esters of Ulmus davidiana var. japonica” (2001)",
  "data": [
    {"assay": "Neuroprotective activity against glutamate-induced toxicity in Sprague-Dawley rat cortical cells assessed as cell viability at 5 uM pretreated 1 hr before glutamate challenge by LDH release assay", "format": "functional", "settings": "read-out: Activity", "units": {"viability at 5 µM": "%"}, "values": [
      {"smiles": "C=C(C)[C@@H]1CC[C@]2(C)C[C@H](O)[C@]3(C)[C@H](C[C@@H](OC(=O)c4ccc(O)c(OC)c4)[C@@H]4[C@@]5(C)CC[C@H](O)C(C)(C)[C@@H]5CC[C@]43C)[C@@H]12", "note": "[ULMICIN A]", "viability at 5 µM": 48},
      {"smiles": "C=C(C)[C@@H]1CC[C@]2(C)C[C@H](O)[C@]3(C)[C@H](C[C@@H](OC(=O)c4ccc(O)cc4)[C@@H]4[C@@]5(C)CC[C@H](O)C(C)(C)[C@@H]5CC[C@]43C)[C@@H]12", "note": "[ULMICIN B]", "viability at 5 µM": 51.2},
      {"smiles": "C=C(C)[C@@H]1CC[C@]2(C)C[C@H](OC(=O)c3ccc(O)cc3)[C@]3(C)[C@H](C[C@@H](OC(=O)c4ccc(O)c(OC)c4)[C@@H]4[C@@]5(C)CC[C@H](O)C(C)(C)[C@@H]5CC[C@]43C)[C@@H]12", "note": "[ULMICIN C]", "viability at 5 µM": 49.2},
      {"smiles": "C=C(C)[C@@H]1CC[C@]2(C)C[C@H](OC(=O)c3ccc(O)c(OC)c3)[C@]3(C)[C@H](C[C@@H](OC(=O)c4ccc(O)c(OC)c4)[C@@H]4[C@@]5(C)CC[C@H](O)C(C)(C)[C@@H]5CC[C@]43C)[C@@H]12", "note": "[ULMICIN D]", "viability at 5 µM": 44.2},
      {"smiles": "C=C(C)[C@@H]1CC[C@]2(C)C[C@H](OC(=O)c3ccccc3)[C@]3(C)[C@H](C[C@@H](OC(=O)c4ccc(O)c(OC)c4)[C@@H]4[C@@]5(C)CC[C@H](O)C(C)(C)[C@@H]5CC[C@]43C)[C@@H]12", "note": "[ULMICIN E]", "viability at 5 µM": 41}
    ]}
  ]
}
